In patent publication US8609892B2 (Eli Lilly and Company, priority 2004, dated 2013):

Biological target: cloned human glucagon receptor (Homo sapiens (Human), UniProt P47871)
Experiment: Glucagon Receptor (hGlucR) Binding Assay
Details: I-125 glucagon competition, SPA, 293HEK membranes, Cheng-Prusoff
Experimental: This plasmid DNA was transfected into 293 HEK cells and selected with 200 ug/mL Hygromycin.
Crude plasma membranes are prepared using cells from suspension culture. The cells are lysed on ice in hypotonic buffer containing 25 mM Tris HCL, pH 7.5, 1 mM MgCl2, DNAse1, 20 u/mL, and Roche Complete Inhibitors-without EDTA. The cell suspension is homogenized with a glass dounce homogenizer using a Teflon pestle for 25 strokes. The homogenate is centrifuged at 4 degrees C. at 1800×g for 15 mins. The supernate is collected and the pellet is resuspended in hypotonic buffer and rehomogenized. The mixture is centrifuged at 1800×g for 15 mins. The second supernate is combined with the first supernate. The combined supernates are recentrifuged at 1800×g for 15 mins to clarify. The clarified supernate is transferred to high speed tubes and centrifuged at 25000×g for 30 minutes at 4 degrees C. The membrane pellet is resuspended in homogenization buffer and stored as frozen aliquots at −80 degree C. freezer until needed.
The specific activity is 2200 Ci/mmol.
The binding buffer contains 25 mM Hepes, pH 7.4, 2.5 mM CaCl2, 1 mM MgCl2, 0.1% fatty acid free BSA, (ICN), 0.003% tween-20, and Roche Complete Inhibitors without EDTA. […] Test compounds are dissolved in DMSO and serially diluted in DMSO. […] Plates are read with a MicroBeta after 14 hours of settling time at room temp. […]

Chain of cloned human glucagon receptor (P47871 26-477): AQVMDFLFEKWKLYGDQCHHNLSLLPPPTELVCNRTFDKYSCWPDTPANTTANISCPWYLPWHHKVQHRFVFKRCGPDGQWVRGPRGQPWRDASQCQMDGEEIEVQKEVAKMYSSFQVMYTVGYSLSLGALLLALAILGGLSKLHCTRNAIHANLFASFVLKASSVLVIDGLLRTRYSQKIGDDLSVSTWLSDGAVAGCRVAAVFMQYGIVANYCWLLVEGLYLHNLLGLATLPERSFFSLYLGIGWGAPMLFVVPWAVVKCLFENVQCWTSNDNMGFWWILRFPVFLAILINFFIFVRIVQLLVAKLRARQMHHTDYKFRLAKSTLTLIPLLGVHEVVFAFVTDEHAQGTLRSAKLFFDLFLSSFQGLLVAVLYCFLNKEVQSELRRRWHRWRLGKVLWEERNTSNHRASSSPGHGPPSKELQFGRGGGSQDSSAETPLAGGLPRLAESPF

Ki | SMILES
265 nM | Cc1ccc(-c2ccc(SC(CC(C)C)c3ccc(C(=O)NCCC(=O)O)cc3)cc2)cc1C (centres unmarked)
254 nM | CCCC(Oc1ccc(-c2ccc(CC(C)C)cc2)nc1)c1ccc(C(=O)NCCC(=O)O)cc1 (centres unmarked)
